In patent publication US11884686B2, “Chelate compounds” (priority 2016, dated 2024):
Entries after “also recorded” stand apart in the source; their conditions may differ.

Key:
Type in all cases: physicochemical
[1] = In vitro proton relaxivity in human serum; details: 60 MHz, 40° C.
Protocol: Both the longitudinal and transverse relaxation times were measured in human serum (BioreclamationIVT, Cat #HMSRM-M) to reflect the efficiency of the Mn(II) based chelates in an environment close to physiological. The relaxivity assessment was carried out at a concentration ranging from 5 to 0 mM Mn(II), at 40° C. using a Minispec Mq benchtop NMR relaxometer (Bruker Instruments, Rheinstetten, Germany) operating at 60 MHz (1.4 T) with an inversion recovery pulse sequence. The longitudinal and transverse relaxivities of the complexes (e.g., r1 and r2 respectively) were calculated by plotting the reciprocal of their relaxation time versus the manganese concentration as determined via ICP-MS (Spectro Arcos FHS12, S/N 10003910 or S/N 12006120) for each Mn(II) based chelates. The dependence of T1 by B0 (i.e., magnetic field) applied was assessed via the acquisition of ^1H Nuclear Magnetic Relaxation Dispersion (NMRD) profiles. A dedicated Stelar SMARTracer Fast Field Cycling relaxometer (0.01-10 MHz) and a Bruker WP80 NMR electromagnet adapted to variable field measurements (20-80 MHz) and controlled by a SMARTracer PC-NMR console was used to record the ^1H NMRD profiles over an extended range of Larmor Frequencies (from 0.01 to 80 MHz). The temperature was monitored by a VTC91 temperature control unit and maintained by a gas flow. The temperature was determined by previous calibration with a Pt resistance temperature probe. High field relaxivities were measured on a Bruker AVANCE NMR spectrometer at 400 MHz. A total of 25 data points per NMRD profile were recorded at each temperature, pH 6.9 and with a manganese concentration in the samples of 6.99, 6.78 and 4.45 mM for the prior art Mn Chelate, Mn Chelate 4 and Mn Chelate 3, respectively. The concentration of Mn(II) in all samples was verified by Bulk Magnetic Susceptibility (BMS) measurements. Relaxivity was computed by subtracting the relaxation rate of the medium (distilled water) from the relaxation rate of the Mn(II) complex solution at each field strength and dividing the difference by the manganese concentration verified by BMS measurements.
The linear fit (R2>0.99 for all compounds examined) of 1/T1 and 1/T2 as a function of Mn concentration generated the r1 or r2 values reported in Table 4 for human serum.

[2] = Water solubility of Mn(II) based chelates; details: thermodynamic from solid, 25° C.
Protocol: The solubility of Mn(II) based chelates was confirmed by dissolving purified Mn(II) based chelates ( 99% purity) in a prescribed volume of solvent (Millipore water 18.2 MegaOhm from a Millipore BioCell Benchtop unit) to provide a solution of given volume. Solutions were visually inspected for homogeneity and filtered through a 0.45 um PTFE filter membrane if necessary. The assessment was carried out at 25° C. Final sample concentrations were confirmed by determination of final Mn(II) concentration via ICP-MS (Spectro Arcos FHS[…] 10003910 or S/N 12006120).

[3] = Dissociation kinetics via Zn2+ transmetallation (T1 relaxation time); details: for nature of the kinetic dissociation curve, Zn2+ exchange: time dependent T1, 25° C., pH 5.1-5.7
Protocol: Kinetic inertness was evaluated at slightly acidic pH due to the slow rate of dissociation of the paramagnetic complex at physiological pH and to the potential hydrolysis of the metal ions at the concentrations used for the experiments and at pH values close to physiological.
The dissociation kinetics of Mn(II) based chelates (concentration 1 mM) of the invention was assessed via Zn^2+ transmetallation recording the time-dependent variation of the longitudinal relaxation time (i.e., T1). The assessment was completed in a set of experiments including for the prior art Mn Chelate different concentrations of competing metal ion (5, 10, 20, 40 equivalents of Zn^2+); at 25° C. and different pH (pH: 5.1; 5.4; 5.7). The dissociation kinetics for Mn Chelate 4 (concentration 1 mM) was assessed in the presence of 5 eq of Zn^2+ at 25° C. and pH 5.1 and 5.7. For both assessments, the reaction mixture contained 0.15 M NaCl and 50 mM N-methyl piperazin buffer (i.e., NMP). The longitudinal relaxation time changes were monitored at 1 MHz for the prior art Mn Chelate and at 0.01 MHz for Mn Chelate 4. Indeed, the release of the free Mn^2+ ion induced by Zn^2+ leads to a decrease of the relaxation time for both Mn(II) based chelates evaluated in all experimental conditions. […]
For any of the transmetallation experiments carried out with the prior art Mn Chelate (e.g., at different pH; different Zn^2+ or Cu^2+ concentration) it was evident that the variation of the relaxation rate T1 (for the Zn^2+-exchange; FIG. 4) or the variation of the UV-Vis absorbance (for the Cu^2+-exchange; FIG. 5) caused by competing metal ion was a “single phase” process better described as a mono-exponential function. […] The rate of dissociation described by kobs was calculated via equation (1) where [MnL]tot is the total concentration of Mn(II) based chelates and t is the observation time.

1H NMRD profiles = details: 0.01 to 80 MHz, pH 6.9
Protocol: Both the longitudinal and transverse relaxation times were measured in human serum (BioreclamationIVT, Cat #HMSRM-M) to reflect the efficiency of the Mn(II) based chelates in an environment close to physiological. The relaxivity assessment was carried out at a concentration ranging from 5 to 0 mM Mn(II), at 40° C. using a Minispec Mq benchtop NMR relaxometer (Bruker Instruments, Rheinstetten, Germany) operating at 60 MHz (1.4 T) with an inversion recovery pulse sequence. The longitudinal and transverse relaxivities of the complexes (e.g., r1 and r2 respectively) were calculated by plotting the reciprocal of their relaxation time versus the manganese concentration as determined via ICP-MS (Spectro Arcos FHS12, S/N 10003910 or S/N 12006120) for each Mn(II) based chelates. The dependence of T1 by B0 (i.e., magnetic field) applied was assessed via the acquisition of ^1H Nuclear Magnetic Relaxation Dispersion (NMRD) profiles. […] The temperature was monitored by a VTC91 temperature control unit and maintained by a gas flow. The temperature was determined by previous calibration with a Pt resistance temperature probe. High field relaxivities were measured on a Bruker AVANCE NMR spectrometer at 400 MHz. […]

[4] = Dissociation kinetics via Cu2+ transmetallation (UV-Vis absorbance); details: pH = 5.0, CCu2+ 0.004 M, 25° C., 0.2 mM chelate

| Structure (SMILES) | r1 (longitudinal relaxivity) [1] [mM⁻¹ s⁻¹] | solubility [2] [mM] | kinetic inertness from conversion, Zn2+ transmetallation ([3]; FIG. 11, versus prior art Mn Chelate) | nature of the kinetic dissociation curve, Zn2+ exchange [3] | 1H NMRD profile (1H NMRD profiles) | kobs1 [4] [min⁻¹] |
| --- | --- | --- | --- | --- | --- | --- |
| CN(C[C@H](O)[C@@H](O)[C@H](O)[C@H](O)CO)C(=O)CCCN1CCN2Cc3cccc(n3)CN(CC1)C(CCC(=O)N(C)C[C@H](O)[C@@H](O)[C@H](O)[C@H](O)CO)C(=O)[O][Mn][O]C(=O)C2CCC(=O)N(C)C[C@H](O)[C@@H](O)[C@H](O)[C@H](O)CO (stereo partly drawn) [Mn Chelate 3] | 8.0 | > 500 |  |  |  |  |
| CN1CCN2Cc3cccc(n3)CN(CC1)C(CCC(=O)N(C)C[C@H](O)[C@@H](O)[C@H](O)[C@H](O)CO)C(=O)[O][Mn][O]C(=O)C2CCC(=O)N(C)C[C@H](O)[C@@H](O)[C@H](O)[C@H](O)CO (stereo partly drawn) [Mn Chelate 4] | 5.3 | > 500 | superior kinetic inertness | biphasic behaviour | only one dispersion in the profile around 1 MHz; also recorded: small r1 hump in the frequency region between 60 and 80 MHz |  |
| CN1CCN2CC(=O)[O][Mn][O]C(=O)CN(CC1)Cc1cccc(n1)C2 [Prior Art Mn Chelate, reference compound] | 3.0 | > 500 |  | single phase | only one dispersion in the profile around 1 MHz | 0.032 |
